In US10064804B2, “Polymeric nitrones and their use in personal care” (Dow Global Technologies LLC, priority 2014, dated 2018):

Experiment: Oxygen Radical Absorbance Capacity (ORAC) antioxidant potential
Details: ORAC test, test solutions at 100 micromolar; calculated from ORAC values relative to Trolox
Protocol: Antioxidant potential is evaluated using the Oxygen Radical Absorbance Capacity (ORAC) protocol. ORAC is a chemical in-vitro method based on the hydrogen atom transfer (HAT) mechanism (see N. Re et al., Free Radical Biology & Medicine, 26 (9/10), 1231 (1997)). ORAC measures antioxidant inhibition of peroxyl radical induced oxidations and thus reflects classical radical chain breaking antioxidant activity by H atom transfer. In this assay, the peroxyl radical reacts with a fluorescent probe to form a non-fluorescent product. This is quantitated using a fluorescence measurement. Antioxidant capacity is determined by decreased rate and amount of product formed over time. This assay depends upon the free radical damage to the fluorescent probe resulting in the change in its fluorescence intensity. The change of fluorescence intensity is an indicator of the degree of free radical damage. In the presence of an antioxidant, the inhibition of free radical damage is reflected in higher fluorescence intensity and can be measured as antioxidant capacity against the free radicals. The uniqueness of ORAC assay is that the reaction is driven to completion. This allows calculation of the area under the curve (AUC) and gives an absolute quantitation of antioxidancy as opposed to relative measurements in many other assays.
As noted, the longer it takes to observe a decrease in fluorescence, the higher the antioxidant (AO) potential. From the AUC for a given antioxidant, the AUC for blank is subtracted to give its ORAC value. The concentration of AO needed to give the same AUC values as Trolox is calculated and used to represent the Trolox equivalent AO Capacity (TEAC). Trolox is ((±)-6-Hydroxy-2,5,7,8-tetramethylchromane-2-carboxylic acid, CAS #53188-07-1), and is used as an internal control. […]
The inventive stilbene-pendant nitrones in the ORAC test solutions were at a concentration of 100 micromolar, while the concentrations of Trolox, Vitamin C, Vitamin E, BHT, PBN+BHT, and VAL-IPHA were at 100 micromolar. The TEAC values calculated from the ORAC values are listed the Table 2.

Compound	TEAC (Trolox equivalent AO Capacity)
CC(C)(C)/[N+]([O-])=C/c1ccccc1 [PBN, 2-Phenyl-N-tert-butylnitrone]	not very high
O=C1O[C@H]([C@@H](O)CO)C(O)=C1O [Vitamin C]	0.76
Vitamin E	0.13
